Laboratory results from PubChem BioAssay (NCI).
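Tested at 5 concentrations; 48 h exposure; 96-well plates; endpoints linearly interpolated, else capped at highest concentration. GI50 is the concentration that inhibits growth by half. TGI: total growth inhibition.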

How the values were obtained:
Test in all cases: DTP human tumour cell line panel, 48 h
HOP-92 NSCLC = system: HOP-92 NSCLC
MALME-3M melanoma = system: MALME-3M melanoma
786-0 renal = system: 786-0 renal
SR leukemia = system: SR leukemia
UACC-62 melanoma = system: UACC-62 melanoma
OVCAR-5 ovarian = system: OVCAR-5 ovarian
A498 renal = system: A498 renal
SK-MEL-28 melanoma = system: SK-MEL-28 melanoma
HCT-116 colon = system: HCT-116 colon
MCF7 breast = system: MCF7 breast

SMILES | TGI (HOP-92 NSCLC) [µM] | TGI (MALME-3M melanoma) [µM] | TGI (786-0 renal) [µM] | TGI (SR leukemia) [µM] | TGI (UACC-62 melanoma) [µM] | TGI (OVCAR-5 ovarian) [µM] | TGI (A498 renal) [µM] | TGI (SK-MEL-28 melanoma) [µM] | TGI (HCT-116 colon) [µM] | TGI (MCF7 breast) [µM] | GI50 (HOP-92 NSCLC) [µM] | GI50 (MALME-3M melanoma) [µM] | GI50 (UACC-62 melanoma) [µM] | GI50 (OVCAR-5 ovarian) [µM] | GI50 (A498 renal) [µM] | GI50 (SK-MEL-28 melanoma) [µM] | GI50 (MCF7 breast) [µM]
O=S1(=O)OCCOS(=O)(=O)C1(F)Cc1ccccc1 | > 100 | > 100 | > 100 | > 100 | > 100 | > 100 | > 100 | > 100 | > 100 | – | – | – | – | – | – | – | –
CN1C/C(=C\c2cccs2)C2=NN(c3ccccc3)C(c3cccs3)C2C1 (centres undefined) | – | > 51.1 | > 44.7 | > 100 | > 100 | > 100 | > 90.2 | > 100 | > 35.7 | > 100 | – | – | – | – | – | – | –
O=C1C=C(NCCc2ccc(O)c([N+](=O)[O-])c2)C(=O)c2[nH]cnc21 | – | 17.6 | > 100 | – | 40.7 | > 100 | > 100 | 30.4 | > 100 | 78.1 | – | – | – | – | – | – | –
COc1ccc(C2CC(c3sc(Nc4ccc(C)cc4)nc3C)=NN2)cc1 (centres undefined) | 30.3 | – | – | – | > 55.3 | 39.2 | 30.7 | 33.6 | 15.1 | 31.7 | – | – | – | – | – | – | –
Cc1cccc2c(=O)c3cccc([C@H](C)C(=O)O)c3oc12 | > 100 | > 100 | > 100 | > 100 | > 100 | – | > 100 | > 100 | > 100 | – | – | – | – | – | – | – | –
CC(C)(C)OC(=O)NC(CSCc1ccc(C(=O)c2ccccc2)cc1)C(=O)N1CCN(CCCCN2c3ccccc3Sc3cc(N=[N+]=[N-])ccc32)CC1 (centres undefined) | > 100 | > 100 | > 100 | – | > 100 | > 100 | > 100 | > 100 | > 100 | > 100 | – | – | – | – | – | – | –
CCC1(CC)C(=O)NC(=O)NC1=S | > 100 | > 100 | > 100 | – | > 100 | > 100 | > 100 | > 100 | > 100 | – | – | – | – | – | – | – | –
CCN(CC)CCC(=O)/C=C/c1ccc(Cl)c(Cl)c1 | > 10 | > 10 | > 10 | 9.43 | – | > 10 | – | – | 3.74 | > 10 | – | – | – | – | – | – | –
O=[N+]([O-])c1ccc(C[P+]2(c3ccccc3)CCCCC2)cc1 (tested in a mixture with another compound) | – | > 100 | > 100 | – | > 100 | > 100 | > 100 | > 100 | – | – | – | – | – | – | – | – | –
CC1=NNC(=O)C1C1(C(=O)O)CC(c2c[nH]c3ccccc23)=NC(=S)N1 (centres undefined) | > 100 | 74.3 | > 100 | – | > 100 | > 100 | > 100 | > 100 | > 100 | – | – | – | – | – | – | – | –
O=C1c2c(c3c4cc(F)ccc4oc3c3[nH]c4ccccc4c23)C(=O)N1O | 5.15 | 6.46 | – | – | 3.41 | > 100 | 5.2 | > 100 | – | > 100 | 1.44 | 1.37 | 1.48 | 38.2 | 1.23 | 2.89 | 0.596
CC(C#N)(NO)C(C)(C#N)NO (centres undefined) | – | > 100 | > 100 | > 100 | > 100 | > 100 | > 100 | > 100 | > 100 | > 100 | – | – | – | – | – | – | –
Cc1cn(S(=O)(=O)c2ccccc2)c2c(OCc3ccccc3)cc([N+](=O)[O-])cc12 | > 100 | > 100 | > 100 | – | > 100 | > 100 | > 100 | > 100 | > 100 | > 100 | – | – | – | – | – | – | –
O=C(Cn1c2ccc(Br)cc2c2nc3ccccc3nc21)NCc1ccccc1 | 13.1 | > 100 | 39 | > 100 | 93.4 | > 100 | > 100 | > 100 | > 100 | – | – | – | – | – | – | – | –
O=C1OC(C(O)CO)C(C(O)CO)OC1=O (centres undefined) | – | > 10 | > 10 | > 10 | > 10 | > 10 | > 10 | > 10 | – | > 10 | – | – | – | – | – | – | –
CN(C)CCNC(=O)c1cccc2c1C(=O)c1ccccc1C2=O | > 73.7 | 28.1 | – | – | 47.9 | > 100 | > 100 | > 100 | 66.5 | > 79 | – | – | – | – | – | – | –
COc1ccc2c(c1)/C(=C\c1c(Cl)nc3n1CCS3)C(=O)N2 | > 100 | > 100 | 45.9 | – | 16.3 | 74.1 | 33.2 | > 100 | 25.5 | 48.5 | – | – | – | – | – | – | –
NCCCn1c(Cl)nc2ccccc21 | – | > 100 | > 100 | > 100 | > 100 | > 100 | > 100 | > 100 | > 100 | > 100 | – | – | – | – | – | – | –
Nc1nnc(N)n1N | > 100 | > 100 | > 100 | > 100 | > 100 | > 100 | – | > 100 | > 100 | – | – | – | – | – | – | – | –

SMILES | TGI (HOP-92 NSCLC) [µM] | TGI (MALME-3M melanoma) [µM] | TGI (786-0 renal) [µM] | TGI (SR leukemia) [µM] | TGI (UACC-62 melanoma) [µM] | TGI (OVCAR-5 ovarian) [µM] | TGI (A498 renal) [µM] | TGI (SK-MEL-28 melanoma) [µM] | TGI (HCT-116 colon) [µM] | TGI (MCF7 breast) [µM] | GI50 (HOP-92 NSCLC) [µM] | GI50 (MALME-3M melanoma) [µM] | GI50 (UACC-62 melanoma) [µM] | GI50 (OVCAR-5 ovarian) [µM] | GI50 (A498 renal) [µM] | GI50 (SK-MEL-28 melanoma) [µM] | GI50 (MCF7 breast) [µM]
N=c1oc2cc(O)ccc2cc1C(=O)Nc1ccccn1 | > 100 | > 100 | 39.3 | – | > 100 | > 100 | 98.2 | > 100 | > 100 | > 100 | – | – | – | – | – | – | –
COc1ccc(-c2cc(-c3ccc(C)cc3)n(C3OC(COC(C)=O)C(OC(C)=O)C(OC(C)=O)C3OC(C)=O)c(=S)c2C#N)cc1 (centres undefined) | > 100 | > 100 | > 100 | > 100 | > 100 | > 100 | – | > 100 | > 100 | > 100 | – | – | – | – | – | – | –
Cc1[nH]c(=O)nc(N/N=C/c2c3ccccc3c(Cl)c3ccccc23)c1C(=O)Nc1ccc(Cl)cc1 | – | > 100 | > 100 | > 100 | > 100 | > 100 | > 100 | > 100 | > 100 | > 100 | – | – | – | – | – | – | –
COc1ccc(C2=C(OC(C)=O)c3cccn3-c3ccc(Cl)cc3S2)cc1 | 6.07 | > 10 | > 10 | 7.3 | > 10 | – | – | > 10 | – | > 10 | – | – | – | – | – | – | –
Cc1[nH]n(-c2nc(-c3ccccc3)cc(=O)[nH]2)c(=O)c1CCO | > 100 | > 100 | > 100 | – | > 100 | > 100 | – | > 100 | > 100 | > 100 | – | – | – | – | – | – | –
COC(=O)c1ccc(OCCn2nnc(C(=O)NN)c2C(=O)NN)cc1 | > 100 | > 100 | > 100 | > 100 | – | > 100 | – | > 100 | > 100 | > 100 | – | – | – | – | – | – | –
C(=N\NC1=NCCCCN1)/c1ccc2ccccc2c1 | 62.7 | 30.4 | 67.9 | – | 79.8 | 76.7 | – | 40.4 | > 100 | 70.4 | – | – | – | – | – | – | –
Nc1cc(OCC2CCCCC2)nc(N)n1 | > 100 | > 100 | > 100 | – | > 100 | > 100 | – | > 100 | > 100 | – | – | – | – | – | – | – | –
C/C(Cc1ccc2c(c1)OCO2)=N\N=c1\sc2ccccc2n1C | > 100 | > 100 | > 100 | – | > 100 | > 100 | > 100 | > 100 | > 100 | > 100 | – | – | – | – | – | – | –
O=C1CCCC2=C1CC1=C(CCCC1=O)N2c1ccc(Cl)cc1 | – | > 100 | > 100 | > 100 | > 100 | > 100 | > 100 | > 100 | > 100 | > 100 | – | – | – | – | – | – | –
CC1=C[P+](c2ccccc2)(c2ccccc2)c2ccccc2O1 | 9.34 | 61 | > 100 | 8.28 | 41.1 | > 100 | – | 62.5 | 16.9 | > 100 | – | – | – | – | – | – | –
Nc1cc(CO)cc(Nc2c3ccccc3nc3ccccc23)c1 | – | 31.8 | 30.4 | > 100 | 34.5 | 32.2 | 46.6 | 32 | 28.5 | 29.5 | – | – | – | – | – | – | –
O=c1cc(NNc2ccccc2)[nH]c(=O)[nH]1 | – | 34.4 | 29.6 | 84.6 | 28.5 | > 100 | > 100 | 23.2 | 32.6 | 26.3 | – | – | – | – | – | – | –
CCOP(=O)(OCC)C(c1ccc(F)cc1)N(C(=O)NC(F)(F)F)c1ccc(F)cc1 (centres undefined) | – | > 100 | > 100 | > 100 | – | > 100 | – | > 100 | > 100 | > 100 | – | – | – | – | – | – | –
CCCCn1c(=O)[nH]c2c(N)ncnc21 | > 100 | > 100 | > 100 | – | > 100 | > 100 | > 100 | > 100 | > 100 | > 100 | – | – | – | – | – | – | –
COP(=O)(OC)C(N)Cc1c[nH]c2ccccc12 (centres undefined) | – | – | – | – | – | > 100 | > 100 | > 100 | > 100 | > 100 | – | – | – | – | – | – | –
O=c1c(NCc2ccccc2)c(C2(c3ccccc3F)SCCCS2)c1=O | > 100 | – | > 100 | – | > 100 | > 100 | > 100 | > 100 | > 100 | > 100 | – | – | – | – | – | – | –
CN(C)N1C(=O)C(=O)N(c2cccc3ccccc23)C1=O | – | > 10 | – | > 10 | > 10 | > 10 | > 10 | > 10 | > 10 | > 10 | – | – | – | – | – | – | –
